Laboratory results published in PubChem BioAssay (NCI).
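A five-concentration, 48-hour dose response in 96-well plates underlies each endpoint, interpolated linearly between surrounding concentrations. TGI: total growth inhibition.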

What follows are compounds tested on SN12C renal (assay: DTP human tumour cell line panel, 48 h).
In the case of c1ccc2c(c1)SC1=C(SC(=C3SC4=C(S3)Sc3ccccc3S4)S1)S2, the TGI is reported as > 100 µM. With CC(C)=CCC/C(C)=C/CO the TGI was > 100 µM. For O=C1C(Cl)=C(Cl)C(=O)C2=C1C1c3ccccc3C2c2ccccc21, the TGI was > 100 µM. For Cc1cnc(-n2c(C)nc3cc(Cl)ccc3c2=O)s1, the TGI was > 100 µM. For O=C1Nc2cc(Cl)ccc2C(=O)N2CCC[C@@H]12, the TGI was > 100 µM.

What follows are compounds tested on OVCAR-4 ovarian (assay: DTP human tumour cell line panel, 48 h).
For c1ccc2c(c1)SC1=C(SC(=C3SC4=C(S3)Sc3ccccc3S4)S1)S2, the TGI was > 100 µM. With CC(C)=CCC/C(C)=C/CO the TGI was > 100 µM. With O=C1C(Cl)=C(Cl)C(=O)C2=C1C1c3ccccc3C2c2ccccc21 the TGI was > 100 µM. In the case of Cc1cnc(-n2c(C)nc3cc(Cl)ccc3c2=O)s1, the TGI is reported as > 100 µM. For O=C1Nc2cc(Cl)ccc2C(=O)N2CCC[C@@H]12, the TGI was > 100 µM.

Each compound was assayed on LOX IMVI melanoma (assay: DTP human tumour cell line panel, 48 h).
In the case of c1ccc2c(c1)SC1=C(SC(=C3SC4=C(S3)Sc3ccccc3S4)S1)S2, the TGI is reported as > 100 µM. In the case of CC(C)=CCC/C(C)=C/CO, the TGI is reported as > 100 µM. Cc1cnc(-n2c(C)nc3cc(Cl)ccc3c2=O)s1 was tested, and the TGI was > 100 µM. In the case of O=C1Nc2cc(Cl)ccc2C(=O)N2CCC[C@@H]12, the TGI is reported as > 100 µM.

These compounds were tested on SF-295 CNS (assay: DTP human tumour cell line panel, 48 h).
For c1ccc2c(c1)SC1=C(SC(=C3SC4=C(S3)Sc3ccccc3S4)S1)S2, the TGI was > 100 µM. CC(C)=CCC/C(C)=C/CO was tested, and the TGI was > 100 µM. In the case of O=C1C(Cl)=C(Cl)C(=O)C2=C1C1c3ccccc3C2c2ccccc21, the TGI is reported as > 100 µM. In the case of Cc1cnc(-n2c(C)nc3cc(Cl)ccc3c2=O)s1, the TGI is reported as > 100 µM. For O=C1Nc2cc(Cl)ccc2C(=O)N2CCC[C@@H]12, the TGI was > 100 µM.

Each compound was assayed on OVCAR-8 ovarian (assay: DTP human tumour cell line panel, 48 h).
In the case of c1ccc2c(c1)SC1=C(SC(=C3SC4=C(S3)Sc3ccccc3S4)S1)S2, the TGI is reported as > 100 µM. For CC(C)=CCC/C(C)=C/CO, the TGI was > 100 µM. In the case of O=C1C(Cl)=C(Cl)C(=O)C2=C1C1c3ccccc3C2c2ccccc21, the TGI is reported as > 100 µM. With Cc1cnc(-n2c(C)nc3cc(Cl)ccc3c2=O)s1 the TGI was > 100 µM. O=C1Nc2cc(Cl)ccc2C(=O)N2CCC[C@@H]12 was tested, and the TGI was > 100 µM.

What follows are compounds tested on ACHN renal (assay: DTP human tumour cell line panel, 48 h).
c1ccc2c(c1)SC1=C(SC(=C3SC4=C(S3)Sc3ccccc3S4)S1)S2 was tested, and the TGI was > 100 µM. CC(C)=CCC/C(C)=C/CO was tested, and the TGI was > 100 µM. In the case of O=C1C(Cl)=C(Cl)C(=O)C2=C1C1c3ccccc3C2c2ccccc21, the TGI is reported as > 100 µM. Cc1cnc(-n2c(C)nc3cc(Cl)ccc3c2=O)s1 showed a TGI of 90.9 µM. In the case of O=C1Nc2cc(Cl)ccc2C(=O)N2CCC[C@@H]12, the TGI is reported as > 100 µM.

What follows are compounds tested on SNB-75 CNS (assay: DTP human tumour cell line panel, 48 h).
For c1ccc2c(c1)SC1=C(SC(=C3SC4=C(S3)Sc3ccccc3S4)S1)S2, the TGI was > 100 µM. O=C1C(Cl)=C(Cl)C(=O)C2=C1C1c3ccccc3C2c2ccccc21 was tested, and the TGI was > 100 µM. Cc1cnc(-n2c(C)nc3cc(Cl)ccc3c2=O)s1 gave a TGI of 70.4 µM. O=C1Nc2cc(Cl)ccc2C(=O)N2CCC[C@@H]12 was tested, and the TGI was > 100 µM.

Each compound was assayed on 786-0 renal (assay: DTP human tumour cell line panel, 48 h).
For c1ccc2c(c1)SC1=C(SC(=C3SC4=C(S3)Sc3ccccc3S4)S1)S2, the TGI was > 100 µM. With CC(C)=CCC/C(C)=C/CO the TGI was > 100 µM. O=C1C(Cl)=C(Cl)C(=O)C2=C1C1c3ccccc3C2c2ccccc21 showed a TGI of 47.4 µM. In the case of Cc1cnc(-n2c(C)nc3cc(Cl)ccc3c2=O)s1, the TGI is reported as > 100 µM. For O=C1Nc2cc(Cl)ccc2C(=O)N2CCC[C@@H]12, the TGI was > 100 µM.

What follows are compounds tested on RXF 393 renal (assay: DTP human tumour cell line panel, 48 h).
In the case of O=C1C(Cl)=C(Cl)C(=O)C2=C1C1c3ccccc3C2c2ccccc21, the TGI is reported as 75.2 µM. In the case of O=C1Nc2cc(Cl)ccc2C(=O)N2CCC[C@@H]12, the TGI is reported as > 100 µM.

These compounds were tested on HOP-62 NSCLC (assay: DTP human tumour cell line panel, 48 h).
c1ccc2c(c1)SC1=C(SC(=C3SC4=C(S3)Sc3ccccc3S4)S1)S2 was tested, and the TGI was > 100 µM. With CC(C)=CCC/C(C)=C/CO the TGI was > 100 µM. Compound O=C1C(Cl)=C(Cl)C(=O)C2=C1C1c3ccccc3C2c2ccccc21 has a TGI of 59.4 µM. In the case of Cc1cnc(-n2c(C)nc3cc(Cl)ccc3c2=O)s1, the TGI is reported as > 100 µM. O=C1Nc2cc(Cl)ccc2C(=O)N2CCC[C@@H]12 was tested, and the TGI was > 100 µM.

These compounds were tested on HCT-116 colon (assay: DTP human tumour cell line panel, 48 h).
With c1ccc2c(c1)SC1=C(SC(=C3SC4=C(S3)Sc3ccccc3S4)S1)S2 the TGI was > 100 µM. With CC(C)=CCC/C(C)=C/CO the TGI was > 100 µM. For O=C1C(Cl)=C(Cl)C(=O)C2=C1C1c3ccccc3C2c2ccccc21, the TGI was > 100 µM. Cc1cnc(-n2c(C)nc3cc(Cl)ccc3c2=O)s1 was tested, and the TGI was 65.6 µM. In the case of O=C1Nc2cc(Cl)ccc2C(=O)N2CCC[C@@H]12, the TGI is reported as > 100 µM.

The compounds below were run on CAKI-1 renal (assay: DTP human tumour cell line panel, 48 h).
c1ccc2c(c1)SC1=C(SC(=C3SC4=C(S3)Sc3ccccc3S4)S1)S2 was tested, and the TGI was > 100 µM. CC(C)=CCC/C(C)=C/CO was tested, and the TGI was > 100 µM. Cc1cnc(-n2c(C)nc3cc(Cl)ccc3c2=O)s1 was tested, and the TGI was > 100 µM. With O=C1Nc2cc(Cl)ccc2C(=O)N2CCC[C@@H]12 the TGI was > 100 µM.

Each compound was assayed on MCF7 breast (assay: DTP human tumour cell line panel, 48 h).
With c1ccc2c(c1)SC1=C(SC(=C3SC4=C(S3)Sc3ccccc3S4)S1)S2 the TGI was > 100 µM. With CC(C)=CCC/C(C)=C/CO the TGI was > 100 µM. O=C1C(Cl)=C(Cl)C(=O)C2=C1C1c3ccccc3C2c2ccccc21 was tested, and the TGI was > 100 µM. With Cc1cnc(-n2c(C)nc3cc(Cl)ccc3c2=O)s1 the TGI was 56.5 µM. O=C1Nc2cc(Cl)ccc2C(=O)N2CCC[C@@H]12 was tested, and the TGI was > 100 µM.

The compounds below were run on U251 CNS (assay: DTP human tumour cell line panel, 48 h).
In the case of c1ccc2c(c1)SC1=C(SC(=C3SC4=C(S3)Sc3ccccc3S4)S1)S2, the TGI is reported as > 100 µM. In the case of CC(C)=CCC/C(C)=C/CO, the TGI is reported as > 100 µM. For O=C1C(Cl)=C(Cl)C(=O)C2=C1C1c3ccccc3C2c2ccccc21, the TGI was 45.4 µM. For Cc1cnc(-n2c(C)nc3cc(Cl)ccc3c2=O)s1, the TGI was > 100 µM. In the case of O=C1Nc2cc(Cl)ccc2C(=O)N2CCC[C@@H]12, the TGI is reported as > 100 µM.

These compounds were tested on HT29 colon (assay: DTP human tumour cell line panel, 48 h).
c1ccc2c(c1)SC1=C(SC(=C3SC4=C(S3)Sc3ccccc3S4)S1)S2 was tested, and the TGI was > 100 µM. With CC(C)=CCC/C(C)=C/CO the TGI was > 100 µM. With O=C1C(Cl)=C(Cl)C(=O)C2=C1C1c3ccccc3C2c2ccccc21 the TGI was > 100 µM. In the case of Cc1cnc(-n2c(C)nc3cc(Cl)ccc3c2=O)s1, the TGI is reported as > 100 µM. With O=C1Nc2cc(Cl)ccc2C(=O)N2CCC[C@@H]12 the TGI was > 100 µM.
